{"source": "patent US6048892A", "about": "“Ester compound pesticide containing thereof” (Sumitomo Chemical Company, Limited, priority 1999, dated 2000)", "format_in_all_cases": "in vivo", "key": {"[1]": {"tested_on": "tobacco cutworm (Spodoptera litura)", "experiment": "Biological Test 1: mortality of larvae on impregnated artificial bait", "details": "144 h, read-out: mortality of the larvae", "experimental": "Emulsifiable concentrates were prepared for each of the present compounds according to the formulation example 1. Thirteen grams of artificial bait for tobacco cutworm (Spodoptera litura) were placed in a polyethylene cup (diameter: 11 cm) and impregnated with 2 ml of the 500 ppm emulsion prepared by diluting the emulsifiable concentrates with water. Ten 4-instar larvae of Spodoptera litura were put in the polyethylene cup. After 6 days, the mortality of the larvae was examined."}, "[2]": {"tested_on": "brown planthopper (Nilaparvata lugens)", "experiment": "Biological Test 2: mortality of larvae on dipped rice plant stalk", "details": "144 h, read-out: mortality of the larvae", "experimental": "A stalk of a rice plant was dipped for one minute in a 500 ppm aqueous emulsion obtained by diluting each emulsifiable concentrate of the present compounds prepared according to the formulation example 1. The rice plant stalk was air-dried and placed in a polyethylene cup (diameter: 5.5 cm) where filter paper (diameter: 5.5 cm) impregnated with 1 ml of water was put. Approximately 30 larvae of brown planthopper (Nilaparvata lugens) were put in the polyethylene cup. After 6 days, the mortality of the larvae was examined."}, "[3]": {"tested_on": "southern corn rootworm (Diabrotica undecimpunctata howardi)", "experiment": "Biological Test 3: mortality of hatched larvae and eggs", "details": "192 h, read-out: mortality of the hatched larvae and eggs", "from_the_text": "Filter paper of 5.5 cm in diameter was laid in the bottom of a polyethylene cup (diameter: 5.5 cm). […] After 8 days, the mortality of the hatched larvae and eggs was examined."}, "[4]": {"tested_on": "German cockroaches (Blattella germanica)", "experiment": "Biological Test 5: mortality of male German cockroaches low sensitive to pyrethroids, treated filter paper", "details": "144 h", "experimental": "Filter paper of 5.5 cm in diameter was laid in the bottom of a polyethylene cup (diameter: 5.5 cm). After 0.7 ml of a 500 ppm aqueous emulsion obtained by diluting each emulsifiable concentrate prepared according to the formulation example 1 was dropped on the filter paper and approximately 30 mg of sucrose as bait was uniformly scattered. Two male German cockroaches (Blattella germanica), which were low sensitive to pyrethroids, were left in the cup with a cover. After six days, the mortality was examined."}, "[5]": {"tested_on": "common mosquitoes (Culex pipiens pallens)", "experiment": "Biological Test 7: knock-down of mosquitoes by sprayed oil solution", "details": "0.7 ml of 0.1% oil solution sprayed in 0.34 m^3 chamber; after 15 minutes", "experimental": "Ten female common mosquitoes (Culex pipiens pallens) were left in a glass chamber (70 cm×70 cm×70 cm: 0.34 m^3). 0.7 ml of 0.1% oil solution prepared for each of the present compounds according to the formulation example 7 was sprayed with a spray gun at 0.8 atmospheric pressure. After 15 minutes, the rate of knocked-down mosquitoes was examined."}, "[6]": {"tested_on": "common mosquitoes (Culex pipiens pallens)", "experiment": "Biological Test 11: mosquitoes in cup over treated aluminum plate without direct contact, mortality", "details": "24 h", "experimental": "After 0.64 ml of a 0.05 (w/v) % acetone solution of the present compounds was dropped into an aluminum plate (bottom diameter: 7 cm), acetone was air-dried. Ten female common mosquitoes (Culex pipiens pallens) were left in a polyethylene cup (diameter: 9 cm; depth: 4.5 cm) and the cup was sealed with a 16-mesh nylon net to prevent direct contact of the mosquitoes with the compound. The cup was placed upside down on the aluminum plate at 25° C. for 120 minutes. The cup was then removed from the aluminum plate, and water and feed were given to the mosquitoes. After 24 hours, the mortality was examined (two replicate)."}, "[7]": {"tested_on": "webbing clothes moth (Tineola bisselliella)", "experiment": "Biological Test 12: topical application to larvae of webbing clothes moth, mortality and fabric damage", "experimental": "Each of the present compounds diluted with acetone to a predetermined concentration was applied to ten middle instar larvae of webbing clothes moth (Tineola bisselliella) at the central part of the back so as to give the active ingredient in a dose of 3 μg/insect. A wool muslin fabric (2 cm×2 cm in size) was given to the webbing clothes moths as the food. After 7 days, the mortality and the degree of damage of the wool muslin fabric by the moths were examined (two replicate)."}, "[8]": {"tested_on": "webbing clothes moth (Tineola bisselliella)", "experiment": "Biological Test 13: volatile agent in cup, mortality and fabric damage", "details": "volatile agent (100 μg on filter paper), 950 cm^3 cup, 25° C., 1 week", "experimental": "A wool muslin fabric (2 cm×2 cm in size) was placed on the bottom of a polyethylene cup (bottom diameter: 10 cm, opening part diameter: 12.5 cm, height: 9.5 cm, volume: 950 cm^3). Ten middle instar larvae of webbing clothes moth (Tineola bisselliella) were put in the cup and each of the volatile agents prepared according to the formulation example 14 was hung from the cap in the interior of the cup. After standing at 25° C. for 1 week, the cup was opened, and the mortality and the degree of damage of the wool muslin fabric by the moths were examined (two replicate)."}, "[9]": {"tested_on": "webbing clothes moth (Tineola bisselliella)", "experiment": "Biological Test 14: treated filter paper in cardboard box, percent moribund, fabric damage and persistence", "details": "36 mg on filter paper", "experimental": "A filter paper (3.2 cm×3.2 cm in size) treated with 36 mg of each of the present compounds and two wool muslin fabrics (25 cm×25 cm in size) were hung down at the upper part of a corrugated cardboard box (29 cm×29 cm×29 cm in size). After standing at 25° C. and a humidity of 60% for 1 week, two tea-strainer balls holding 7 to 10 middle instar larvae of webbing clothes moth (Tineola bisselliella) and one piece of wool muslin cloth (2 cm×2 cm in size) were hung down at the upper part of the box. The box was closed with a lid. After one week, the box was opened, and the percent moribund and the degree of damage of the wool muslin cloth by the moths were examined. The same tests was repeated 2 weeks, 3 weeks and 5 weeks after the treatment to examine the persistance of the present compound. The degree of damage was represented by \"-\" in no damage, \"+\" in slight damage, \"++\" in heavy damage and \"+++\" in severe damage."}, "[10]": {"tested_on": "German cockroaches (Blattela germanica)", "experiment": "Biological Test 15: repellency, treated sheet shelter", "details": "1.0 ml of 0.1% by weight acetone solution on filter paper; 24 hours", "experimental": "The obtained sheet was folded as to be a triangular tube where one side of the triangle-shaped base was 3 cm.\nIn a plastic cup (650 ml volume), said triangular tube was placed as a shelter (cockroach hiding residence). Ten adult German cockroaches (Blattela germanica) were placed in said plastic cup together with food and water and then observed the number of cockroaches in the shelter 24 hours later (two replicate). Repellency (%) was calculated by the following formula: [formula]"}, "[11]": {"tested_on": "houseflies (Musca domestica)", "experiment": "Biological Test 16: topical application of compound (1) with piperonyl butoxide, mortality", "details": "after 24 hours", "experimental": "The combination rate of piperonyl butoxide to the present compound was 0, 2, 4, 8 and 16 times. The mixture was dissolved in acetone. The acetone solution (0.5 μL) was applied to 10 female houseflies (Musca domestica) at the back thoracic region. After 24 hours, the number of dead insects was observed (2 repetition) and mortality was calculated."}}}
{"smiles": "Cc1ccc(COC(=O)[C@@H]2[C@H](/C=C(\\Cl)C(F)(F)F)C2(C)C)o1", "note": "(relative stereo) [Compound (1), 5-methyl-2-furfuryl (1RS,cis)-3-(Z-2-chloro-3,3,3-trifluoroprop-1-enyl)-2,2-dimethylcyclopropanecarboxylate]", "values": [{"measurement": "mortality at 500 µg/mL", "setting": "[1]", "value": 100, "unit": "%"}, {"measurement": "mortality at 500 ppm", "setting": "[2]", "value": "≥ 90", "unit": "%"}, {"measurement": "mortality at 50 ppm", "setting": "[3]", "value": 100, "unit": "%"}, {"measurement": "mortality at 500 ppm", "setting": "[4]", "value": 100, "unit": "%"}, {"measurement": "rate of knocked-down mosquitoes", "setting": "[5]", "value": "≥ 90", "unit": "%"}, {"measurement": "mortality at 500 µg/mL", "setting": "[6]", "value": 100, "unit": "%"}, {"measurement": "degree of damage of the wool muslin fabric", "setting": "[7]; 3 μg/insect, after 7 days", "value": "no damage"}, {"measurement": "mortality at 0.003 mg", "setting": "[7]; Tineola bisselliella, 168 h", "value": 100, "unit": "%"}, {"measurement": "degree of damage of the wool muslin fabric", "setting": "[8]", "value": "no damage"}, {"measurement": "mortality", "setting": "[8]; 10080 min", "value": 100, "unit": "%"}, {"measurement": "degree of damage", "setting": "[9]; After 1 week", "value": "-"}, {"measurement": "degree of damage", "setting": "[9]; After 2 weeks", "value": "-"}, {"measurement": "degree of damage", "setting": "[9]; After 3 weeks", "value": "-"}, {"measurement": "degree of damage", "setting": "[9]; After 5 weeks", "value": "-"}, {"measurement": "Repellency (%)", "setting": "[10]", "value": 100, "unit": "%"}, {"measurement": "Mortality (%)", "setting": "[11]; compound (1) 0.5 μg/female, piperonyl butoxide 0", "value": 30, "unit": "%"}, {"measurement": "Mortality (%)", "setting": "[11]; compound (1) 0.5 + piperonyl butoxide 2.0 μg/female", "value": 100, "unit": "%"}, {"measurement": "Mortality (%)", "setting": "[11]; compound (1) 0.5 + piperonyl butoxide 4.0 μg/female", "value": 100, "unit": "%"}, {"measurement": "Mortality (%)", "setting": "[11]; compound (1) 0.5 + piperonyl butoxide 8.0 μg/female", "value": 100, "unit": "%"}]}
